Results as given in PubChem BioAssay AID2060352 (Molecular Pharmacology Branch, DTP, NCI, 2025).
Where “and” joins values, the source holds several entries; their conditions need not be identical. Equal values may be shown once.

Tested on: 616215-338-R-J1-PDC spheroid with HUVEC/MSC, viability
Test: Anticancer human tumor 616215-338-R-J1-PDC patient-derived colon adenocarcinoma cell line growth inhibition [TAK]
Settings: for viability, T/C: stronger effect = lower value
Excerpt: Combinatorial screen of targeted agents with TAK-243 and ipatasertib in multi-cell type tumor spheroids
A high-throughput screen of multi-cell type tumor spheroids was designed to identify active combinations of targeted small molecules and TAK-243 or ipatasertib. Complex spheroids include a stromal component modeled by human endothelial cells (HUVEC) and fibroblasts modeled by human mesenchymal stem cells (MSCs). The concentration ranges selected for each drug and investigational agent were based upon clinically achievable concentrations if the clinical Cmax of the agent was known.
Compounds. The drugs and investigational agents: TAK-243 (785004), ipatasertib (767898), everolimus (733504), selumetinib (741078), bortezomib (756655), trametinib (758246), ixazomib (758254), vemurafenib (761431), dabrafenib (764134), sapanisertib (764658), alpelisib (765974), and copanlisib (816437), were obtained from the National Cancer Institute (NCI) Developmental Therapeutics Program Chemical Repository. The FDA-approved anticancer drug set is available from the NCI Developmental Therapeutics Program. […] The stock solutions were prepared in dimethyl sulfoxide (DMSO, Sigma-Aldrich, St. Louis, MO, cat. D2650) at 800-fold the tested concentration and stored at -70 degrees C prior to their use. All drugs and investigational agents were tested over a range starting from a high concentration at or near the clinical Cmax and decreasing in half-log increments. If the clinical Cmax for an agent had not been determined, the highest concentration tested was 10 microM.
NCI60 Cell Culture. NCI60 cell lines were obtained from the NCI Developmental Therapeutics Program Tumor Repository. For each lot of cells, the Repository performed Applied Biosystems AmpFLSTR Identifiler testing with PCR amplification to confirm consistency with the published Identifier STR profile for each cell line. Cells were kept in continuous culture for no more than 20 passages. The optimal seeding densities for each of the cell lines at each time point assessed were determined prior to performing the concentration response studies. Briefly, the NCI60 human tumor lines were grown as monolayers in RPMI 1640 medium supplemented with 10% FBS and 2 mmol/L L-glutamine.
An additional 2 lines were from the NCI60 cell line panel including melanomas, MALME-3M and SK-MEL-2. Pooled donor human umbilical vein endothelial cells (HUVEC, Lonza, cat. CC-2519) and human mesenchymal stem cells (hMSC, Lonza, cat. PT-2501) were purchased from Lonza (Walkersville, MD).
PDMR cell lines were grown in complete medium (DC medium): Dulbecco's modified Eagle's medium (DMEM)/F12 supplemented with 5% fetal bovine serum (FBS), 2 mM L-glutamine, 100 U/mL penicillin and 100 µg/ml streptomycin, 0.4 µg/ml hydrocortisone, 10 ng/ml epidermal growth factor (EGF) recombinant human protein, 24 µg/mL adenine, and 0.1 mg/mL primocin. During culture from frozen stock vials, PDMR cells were cultured in the same medium containing 10 µM Y-27632 (see Table 3). The PDCs were cultured in complete DMEM/F12 media without 10 microM Y-27632 dihydrochloride for at least two passages prior to the screen. The pooled donor HUVEC and hMSC were cultured in endothelial cell growth medium 2 (PromoCell, Heidelberg, Germany, cat. C-22011) and mesenchymal stem cell growth medium 2 (PromoCell, cat. C-28009), respectively. For all experiments, HUVEC and hMSC were used at passages </=5.
For the pre-screen, cell seeding densities were determined from a titration spanning the range from 5,000 to 313 cells per well. The mct-spheroids including 60% malignant cells, 25% HUVEC and 15% MSC dispensed as a mixture into U-bottom Ultra-Low Attachment 384-well plates (Corning, NY)
High-throughput Drug Combination Screening.
Prior to their inoculation into 384-well plates, malignant cells, HUVEC, and hMSC were removed from T flasks using TrypLE express (Thermo Fisher Scientific, cat. 12605036) and harvested by centrifugation for 5 min at 233 x g. […]

[1] = curve of first compound, second compound 0.3 µM
[2] = curve of first compound, second compound 0.949 µM
[3] = curve of first compound, second compound 3 µM
[4] = curve of first compound, second compound 9.49 µM
[5] = curve of first compound, second compound 30 µM
[6] = second compound 0.3 µM, first compound 0.000316 µM
[7] = second compound 0.3 µM, first compound 0.001 µM
[8] = second compound 0.3 µM, first compound 0.00316 µM
[9] = second compound 0.3 µM, first compound 0.01 µM
[10] = second compound 0.949 µM, first compound 0.000316 µM
[11] = second compound 0.949 µM, first compound 0.001 µM
[12] = second compound 0.949 µM, first compound 0.00316 µM
[13] = second compound 0.949 µM, first compound 0.01 µM
[14] = second compound 3 µM, first compound 0.000316 µM
[15] = second compound 3 µM, first compound 0.001 µM
[16] = second compound 3 µM, first compound 0.00316 µM
[17] = second compound 3 µM, first compound 0.01 µM
[18] = second compound 9.49 µM, first compound 0.000316 µM
[19] = second compound 9.49 µM, first compound 0.001 µM
[20] = second compound 9.49 µM, first compound 0.00316 µM
[21] = second compound 9.49 µM, first compound 0.01 µM
[22] = second compound 30 µM, first compound 0.000316 µM
[23] = second compound 30 µM, first compound 0.001 µM
[24] = second compound 30 µM, first compound 0.00316 µM
[25] = second compound 30 µM, first compound 0.01 µM
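Further: spheroids exposed to drugs for 7 days before readout.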

CC(C)n1nc(-c2ccc3oc(N)nc3c2)c2c(N)ncnc21 + CC(C)NCC(C(=O)N1CCN(c2ncnc3c2C(C)CC3O)CC1)c1ccc(Cl)cc1
IC50 [1]: 85.8 nM | IC50 [2]: 18.3 nM | IC50 [3]: 2.73 nM | IC50 [4]: < 0.316 nM | IC50 [5]: < 0.316 nM | viability, T/C [6]: 93.5% | viability, T/C [7]: 99.9% | viability, T/C [8]: 107% | viability, T/C [9]: 130% | viability, T/C (second compound 0.3 µM, first compound 0.0316 µM): 112% | viability, T/C (second compound 0.3 µM, first compound 0.1 µM): 41.2% | viability, T/C [10]: 112% | viability, T/C [11]: 119% | viability, T/C [12]: 109% | viability, T/C [13]: 66.6% | viability, T/C (second compound 0.949 µM, first compound 0.0316 µM): 36.7% | viability, T/C (second compound 0.949 µM, first compound 0.1 µM): 22.3% | viability, T/C [14]: 77.2% | viability, T/C [15]: 74.2% | viability, T/C [16]: 43.5% | viability, T/C [17]: 28.2% | viability, T/C (second compound 3 µM, first compound 0.0316 µM): 17.5% | viability, T/C (second compound 3 µM, first compound 0.1 µM): 13.7% | viability, T/C [18]: 28.6% | viability, T/C [19]: 25.8% | viability, T/C [20]: 19% | viability, T/C [21]: 13.1% | viability, T/C (second compound 9.49 µM, first compound 0.0316 µM): 11% | viability, T/C (second compound 9.49 µM, first compound 0.1 µM): 10.2% | viability, T/C [22]: 12.6% | viability, T/C [23]: 11.5% | viability, T/C [24]: 11.4% | viability, T/C [25]: 7.84% | viability, T/C (second compound 30 µM, first compound 0.0316 µM): 7.49% | viability, T/C (second compound 30 µM, first compound 0.1 µM): 7.08%

Cc1nc(NC(=O)N2CCCC2C(N)=O)sc1-c1ccnc(C(C)(C)C(F)(F)F)c1 (configuration not stated)
viability, T/C (compound 0.0316 µM): 118% and 104% | viability, T/C (compound 0.1 µM): 107% and 117% | viability, T/C (compound 0.316 µM): 120% and 111% | viability, T/C (compound 1 µM): 105% and 108% | viability, T/C (compound 3.16 µM): 106% and 111% | viability, T/C (compound 10 µM): 106% and 91.4% | IC50 (curve of compound): > 10000 nM

CC(C)CC(NC(=O)C(Cc1ccccc1)NC(=O)c1cnccn1)B(O)O (configuration not stated) + CC(C)NCC(C(=O)N1CCN(c2ncnc3c2C(C)CC3O)CC1)c1ccc(Cl)cc1
IC50 [1]: > 10 nM | IC50 [2]: > 10 nM | IC50 [3]: 5.34 nM | IC50 [4]: < 0.0316 nM | IC50 [5]: < 0.0316 nM | viability, T/C (second compound 0.3 µM, first compound 31.6 pM): 90.8% | viability, T/C (second compound 0.3 µM, first compound 0.0001 µM): 99.2% | viability, T/C [6]: 90.8% | viability, T/C [7]: 95.1% | viability, T/C [8]: 96.6% | viability, T/C [9]: 112% | viability, T/C (second compound 0.949 µM, first compound 31.6 pM): 114% | viability, T/C (second compound 0.949 µM, first compound 0.0001 µM): 109% | viability, T/C [10]: 121% | viability, T/C [11]: 112% | viability, T/C [12]: 111% | viability, T/C [13]: 80.3% | viability, T/C (second compound 3 µM, first compound 31.6 pM): 81.1% | viability, T/C (second compound 3 µM, first compound 0.0001 µM): 88.7% | viability, T/C [14]: 88.7% | viability, T/C [15]: 80.9% | viability, T/C [16]: 84.8% | viability, T/C [17]: 8.39% | viability, T/C (second compound 9.49 µM, first compound 31.6 pM): 33.9% | viability, T/C (second compound 9.49 µM, first compound 0.0001 µM): 35.2% | viability, T/C [18]: 26.4% | viability, T/C [19]: 29.8% | viability, T/C [20]: 32.2% | viability, T/C [21]: 0.75% | viability, T/C (second compound 30 µM, first compound 31.6 pM): 15.3% | viability, T/C (second compound 30 µM, first compound 0.0001 µM): 15.2% | viability, T/C [22]: 14.1% | viability, T/C [23]: 13.2% | viability, T/C [24]: 15.1% | viability, T/C [25]: 0.24%

CC(=O)Nc1cccc(-n2c(=O)n(C3CC3)c(=O)c3c(Nc4ccc(I)cc4F)n(C)c(=O)c(C)c32)c1 + CC(C)NCC(C(=O)N1CCN(c2ncnc3c2C(C)CC3O)CC1)c1ccc(Cl)cc1
IC50 [1]: 4.61 nM | IC50 [2]: 1.65 nM | IC50 [3]: 0.213 nM | IC50 [4]: < 0.0949 nM | IC50 [5]: < 0.0949 nM | viability, T/C (second compound 0.3 µM, first compound 94.9 pM): 131% | viability, T/C (second compound 0.3 µM, first compound 0.0003 µM): 132% | viability, T/C (second compound 0.3 µM, first compound 0.000949 µM): 125% | viability, T/C (second compound 0.3 µM, first compound 0.003 µM): 69.9% | viability, T/C (second compound 0.3 µM, first compound 0.00949 µM): 16.6% | viability, T/C (second compound 0.3 µM, first compound 0.03 µM): 3.1% | viability, T/C (second compound 0.949 µM, first compound 94.9 pM): 134% | viability, T/C (second compound 0.949 µM, first compound 0.0003 µM): 130% | viability, T/C (second compound 0.949 µM, first compound 0.000949 µM): 69.7% | viability, T/C (second compound 0.949 µM, first compound 0.003 µM): 28.1% | viability, T/C (second compound 0.949 µM, first compound 0.00949 µM): 9.36% | viability, T/C (second compound 0.949 µM, first compound 0.03 µM): 1.03% | viability, T/C (second compound 3 µM, first compound 94.9 pM): 57.9% | viability, T/C (second compound 3 µM, first compound 0.0003 µM): 47.6% | viability, T/C (second compound 3 µM, first compound 0.000949 µM): 25.3% | viability, T/C (second compound 3 µM, first compound 0.003 µM): 11.9% | viability, T/C (second compound 3 µM, first compound 0.00949 µM): 4.2% | viability, T/C (second compound 3 µM, first compound 0.03 µM): 0.83% | viability, T/C (second compound 9.49 µM, first compound 94.9 pM): 22% | viability, T/C (second compound 9.49 µM, first compound 0.0003 µM): 18.4% | viability, T/C (second compound 9.49 µM, first compound 0.000949 µM): 12.3% | viability, T/C (second compound 9.49 µM, first compound 0.003 µM): 6.63% | viability, T/C (second compound 9.49 µM, first compound 0.00949 µM): 2.23% | viability, T/C (second compound 9.49 µM, first compound 0.03 µM): 1.12% | viability, T/C (second compound 30 µM, first compound 94.9 pM): 10.7% | viability, T/C (second compound 30 µM, first compound 0.0003 µM): 9.94% | viability, T/C (second compound 30 µM, first compound 0.000949 µM): 6.33% | viability, T/C (second compound 30 µM, first compound 0.003 µM): 3.43% | viability, T/C (second compound 30 µM, first compound 0.00949 µM): 1.53% | viability, T/C (second compound 30 µM, first compound 0.03 µM): 1.15%
